# Results taken from patent publication US6894003B2, “Enhancement of the activity of carotenoid biosynthesis inhibitor herbicides” (BASF Aktiengesellschaft, priority 2000, dated 2005).
# Assays:
# Format in all cases: in vivo
# Papaver rhoeas = experiment: Greenhouse pre-emergence weed control, poppy; details: vs untreated check
# From the text: (§1) Seeds of the monocotyledonous and dicotyledonous test plants are separately mixed with potting soil and planted on top of approximately one inch of soil in separate pint cups. After planting, the cups are subjected to the following treatments:
# (§2) Technical TTP (treatment H) is applied as a dispersion in acetone using a single-nozzle overhead track pneumatic sprayer, while granular or powder formulations (treatments I-K) are applied by shaking the solid granules or powder directly and evenly onto the soil surface.
# (§3) The treated cups are then placed on greenhouse benches, watered and cared for in accordance with conventional greenhouse procedures. Twenty days after treatment (DAT), the seedling plants are examined, and the % weed control as compared to untreated check is recorded (Table I).
# [1] = system: Triticum aestivum (variety Kanzler); experiment: Crop phytotoxicity, winter wheat (variety Kanzler); details: assessed visually
# From the text: as §1, §2, §3
# Galium aparine = experiment: Greenhouse pre-emergence weed control, Galium; details: for Weed Control (20 DAT) GALAP: vs untreated check
# From the text: as §1, §2, §3
# Alopecurus myosuroides = experiment: Greenhouse pre-emergence weed control, blackgrass; details: for Weed Control (20 DAT) ALOMY: vs untreated check
# From the text: as §1, §2, §3
# Setaria viridis = experiment: Greenhouse pre-emergence weed control, green foxtail; details: vs untreated check
# From the text: as §1, §2, §3
# Veronica persica = experiment: Greenhouse pre-emergence weed control, Veronica; details: vs untreated check
# From the text: as §1, §2, §3
# Lolium perenne = experiment: Greenhouse pre-emergence weed control, ryegrass; details: vs untreated check
# From the text: as §1, §2, §3
# [2] = system: Matricaria inodora vulgare; experiment: Greenhouse pre-emergence weed control, Matricaria; details: vs untreated check
# From the text: as §1, §2, §3
# [3] = system: Hordeum vulgare (variety Mammut); experiment: Crop phytotoxicity, winter barley (variety Mammut); details: assessed visually
# From the text: as §1, §2
# The treated cups are then placed on greenhouse benches, watered and cared for in accordance with conventional greenhouse procedures. […]
smiles,measurement,setting,value
"FC(F)(F)c1ccc(-c2nccc(Oc3cccc(C(F)(F)F)c3)n2)cc1 [H, 4-(3-trifluoromethylphenoxy)-2-(4-trifluoromethylphenyl)-pyrimidine]",Weed Control (20 DAT) PAPRH,Papaver rhoeas; 0.060 kg/ha,99.5%
same,Weed Control (20 DAT) PAPRH,Papaver rhoeas; 0.120 kg/ha,99.5%
same,Weed Control (20 DAT) PAPRH,Papaver rhoeas; 0.240 kg/ha,100.0%
same,Weed Control (20 DAT) PAPRH,Papaver rhoeas; 0.480 kg/ha,100.0%
same,Crop Phytotoxicity 11 DAT TRZAWK,[1]; 0.060 kg/ha,1.0
same,Crop Phytotoxicity 20 DAT TRZAWK,[1]; 0.060 kg/ha,0.5
same,Crop Phytotoxicity 11 DAT TRZAWK,[1]; 0.120 kg/ha,2.5
same,Crop Phytotoxicity 20 DAT TRZAWK,[1]; 0.120 kg/ha,1.0
same,Crop Phytotoxicity 11 DAT TRZAWK,[1]; 0.240 kg/ha,6.5
same,Crop Phytotoxicity 20 DAT TRZAWK,[1]; 0.240 kg/ha,4.5
same,Crop Phytotoxicity 11 DAT TRZAWK,[1]; 0.480 kg/ha,14.0
same,Crop Phytotoxicity 20 DAT TRZAWK,[1]; 0.480 kg/ha,10.0
same,Weed Control (20 DAT) GALAP,Galium aparine; 0.060 kg/ha,67.5%
same,Weed Control (20 DAT) GALAP,Galium aparine; 0.120 kg/ha,72.5%
same,Weed Control (20 DAT) GALAP,Galium aparine; 0.240 kg/ha,98.0%
same,Weed Control (20 DAT) GALAP,Galium aparine; 0.480 kg/ha,98.0%
same,Rate required to control Galium,Galium aparine; greenhouse,240 g/ha
same,Weed Control (20 DAT) ALOMY,Alopecurus myosuroides; 0.060 kg/ha,22.5%
same,Weed Control (20 DAT) ALOMY,Alopecurus myosuroides; 0.120 kg/ha,77.5%
same,Weed Control (20 DAT) ALOMY,Alopecurus myosuroides; 0.240 kg/ha,98.5%
same,Weed Control (20 DAT) ALOMY,Alopecurus myosuroides; 0.480 kg/ha,99.0%
same,Rate required to control Alopecurus,Alopecurus myosuroides; greenhouse,240 g/ha
same,Weed Control (20 DAT) SETVI,Setaria viridis; 0.060 kg/ha,96.5%
same,Weed Control (20 DAT) SETVI,Setaria viridis; 0.120 kg/ha,100.0%
same,Weed Control (20 DAT) SETVI,Setaria viridis; 0.240 kg/ha,100.0%
same,Weed Control (20 DAT) SETVI,Setaria viridis; 0.480 kg/ha,100.0%
same,Weed Control (20 DAT) VERPE,Veronica persica; 0.060 kg/ha,99.5%
same,Weed Control (20 DAT) VERPE,Veronica persica; 0.120 kg/ha,100.0%
same,Weed Control (20 DAT) VERPE,Veronica persica; 0.240 kg/ha,100.0%
same,Weed Control (20 DAT) VERPE,Veronica persica; 0.480 kg/ha,100.0%
same,Weed Control (20 DAT) LOLPE,Lolium perenne; 0.060 kg/ha,91.5%
same,Weed Control (20 DAT) LOLPE,Lolium perenne; 0.120 kg/ha,98.5%
same,Weed Control (20 DAT) LOLPE,Lolium perenne; 0.240 kg/ha,99.0%
same,Weed Control (20 DAT) LOLPE,Lolium perenne; 0.480 kg/ha,99.0%
same,Weed Control (20 DAT) MATIN,[2]; 0.060 kg/ha,98.5%
same,Weed Control (20 DAT) MATIN,[2]; 0.120 kg/ha,99.0%
same,Weed Control (20 DAT) MATIN,[2]; 0.240 kg/ha,99.0%
same,Weed Control (20 DAT) MATIN,[2]; 0.480 kg/ha,100.0%
same,Crop Phytotoxicity 11 DAT HORVWM,[3]; 0.060 kg/ha,20.0
same,Crop Phytotoxicity 20 DAT HORVWM,[3]; 0.060 kg/ha,15.0
same,Crop Phytotoxicity 11 DAT HORVWM,[3]; 0.120 kg/ha,40.0
same,Crop Phytotoxicity 20 DAT HORVWM,[3]; 0.120 kg/ha,25.0
same,Crop Phytotoxicity 11 DAT HORVWM,[3]; 0.240 kg/ha,42.5
same,Crop Phytotoxicity 20 DAT HORVWM,[3]; 0.240 kg/ha,40.0
same,Crop Phytotoxicity 11 DAT HORVWM,[3]; 0.480 kg/ha,47.5
same,Crop Phytotoxicity 20 DAT HORVWM,[3]; 0.480 kg/ha,45.0
